Measurements from patent US5827890A, “Succinamide derivatives, processes for their preparation and their use as gelatinase and collagenase inhibitors” (Celltech Therapeutics Ltd., priority 1993, dated 1998).

Legend:
gelatinase A (72 K form) = assay: Pleural cavity assay, oral activity in mice (injected gelatinase A and radiolabelled [14C]-gelatin); type: in vivo; settings: for inhibition (comparative experiment): each compound administered at the same dose (dose not stated)
Experimental: The oral activity of the compounds according to the invention may be determined using the pleural cavity assay described below.
A […] solution of the test compound in an appropriate solvent (e.g. 50% polyethylene glycol (PG) plus a variable proportion of dimethyl sulphoxide (DMSO) (if required) is administered orally. After an interval of up to 24 hrs, 0.4 ml of a mixture of an equal volume (2.2 ml) of the enzyme gelatinase A (72 K form at a concentration of 20 nM) and radiolabelled [^14 C]-gelatin (at an approximate concentration of 10 μM i.e. 500 times molar excess) is injected into the pleural cavity and maintained at […]. After 35 min mice are overdosed with anaesthetic, the contents of the pleural cavity aspirated and the aspirates cleared by centrifugation at 4° C. then diluted to 15% in trichloroacetic acid (TCA) and left overnight at 4° C. The resulting TCA precipitate is then separated by centrifugation and radioactivity in each supernatant measured by scintillation counting. Results are expressed as a % inhibition of enzyme activity calculated by comparing the radioactivity measured for each test compound with a control value obtained by performing the same assay in the absence of a gelatinase inhibitor.
A comparative experiment was carried out using the same procedure and the compound of Example 1 [A] and the amides [B], [C] and [D] (prepared in a similar fashion to the compound of Example 1): [drawing 19]

Collagenase = molecular target: T1, Collagenase (Homo sapiens, UniProt P03956); assay: Enzyme assay to determine Ki values, peptide substrate Dnp-Pro-Leu-Gly-Leu-Trp-Ala-D-Arg-NH2 (collagenase); type: biochemical; settings: for Ki: incubated overnight, pH 7.5, Ki (app) assumed to approximate true Ki
T1 sequence (P03956 100-469): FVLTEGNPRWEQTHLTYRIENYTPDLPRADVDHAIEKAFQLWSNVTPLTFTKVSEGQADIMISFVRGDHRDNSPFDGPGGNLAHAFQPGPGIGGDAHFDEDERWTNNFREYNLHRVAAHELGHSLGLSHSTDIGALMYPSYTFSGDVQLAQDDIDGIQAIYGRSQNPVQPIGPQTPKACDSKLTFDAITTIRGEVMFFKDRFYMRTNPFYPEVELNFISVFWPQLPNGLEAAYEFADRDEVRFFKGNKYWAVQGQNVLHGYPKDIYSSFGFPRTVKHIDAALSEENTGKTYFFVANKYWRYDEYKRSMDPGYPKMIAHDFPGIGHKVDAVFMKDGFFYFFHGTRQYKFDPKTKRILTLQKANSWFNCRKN
Experimental: (§1) The activity of the compounds of the invention may be determined as described below.
(§2) All enzyme assays to determine Ki values were performed using the peptide substrate Dnp-Pro-Leu-Gly-Leu-Trp-Ala-D-Arg-NH2. [M. Sharon Stock and Robert D. Gray. JBC 264, 4277-81, 1989). The enzymes cleave at the Gly-Leu bond which can be followed fluorimetrically by measuring the increase in Trp fluorescence emission associated with the removal of the quenching dinitrophenol (Dnp) group.
(§3) Brij 35 at either room temperature or 37° C. depending on the enzyme. The reaction is stopped by adjusting the pH to 4 using 0.1M sodium acetate buffer and the fluorescence read at an excitation wavelength of 280 nm and emission wavelength of 346 nm.
(§4) Ki values can be established using the equation for tight-binding inhibition: [formula] where Vo is the initial rate of reaction in the absence of inhibitor, Vi is the initial rate in the presence of inhibitor, [E] is the total enzyme concentration and [I] the total inhibitor concentration in the reaction mixture.
(§5) For stromelysin and collagenase, Ki (app) was assumed to approximate to the true Ki as [S]<<Km for the substrate hydrolysis. For gelatinase the Ki was determined by performing the analyses at several substrate concentrations. A plot of Ki (app) vs. [S] then gave the true Ki as the value of the y-axis intercept.

Gelatinase 72KD = molecular target: T2, Gelatinase 72KD (Homo sapiens, UniProt P08253); assay: Enzyme assay to determine Ki values, peptide substrate Dnp-Pro-Leu-Gly-Leu-Trp-Ala-D-Arg-NH2 (gelatinase 72KD); type: biochemical; settings: for Ki: incubated overnight, pH 7.5, true Ki from plot of Ki (app) vs. [S]
T2 sequence (P08253 110-660): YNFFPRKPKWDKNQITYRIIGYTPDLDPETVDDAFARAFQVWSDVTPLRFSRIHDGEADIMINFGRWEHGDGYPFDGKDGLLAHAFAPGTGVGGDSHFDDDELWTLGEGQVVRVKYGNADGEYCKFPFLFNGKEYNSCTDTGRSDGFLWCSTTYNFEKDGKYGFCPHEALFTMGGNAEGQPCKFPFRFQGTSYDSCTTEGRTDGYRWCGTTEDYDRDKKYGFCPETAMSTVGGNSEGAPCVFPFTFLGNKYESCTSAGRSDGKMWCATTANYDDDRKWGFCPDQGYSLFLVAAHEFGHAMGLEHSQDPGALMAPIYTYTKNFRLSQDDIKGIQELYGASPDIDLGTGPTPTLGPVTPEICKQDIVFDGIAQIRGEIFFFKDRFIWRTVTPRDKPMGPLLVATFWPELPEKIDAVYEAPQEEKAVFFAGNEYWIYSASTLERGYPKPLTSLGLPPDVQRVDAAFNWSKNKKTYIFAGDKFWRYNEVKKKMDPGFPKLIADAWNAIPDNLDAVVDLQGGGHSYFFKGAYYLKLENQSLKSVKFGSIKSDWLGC
Experimental: as §1, §2, §3, §4, §5

Stromelysin-1 = Stromelysin-1 (Homo sapiens, UniProt P08254); assay: Enzyme assay to determine Ki values, peptide substrate Dnp-Pro-Leu-Gly-Leu-Trp-Ala-D-Arg-NH2 (stromelysin-1); type: biochemical; settings: incubated overnight, pH 7.5; Ki (app) assumed to approximate true Ki
Chain of Stromelysin-1 (P08254 100-477): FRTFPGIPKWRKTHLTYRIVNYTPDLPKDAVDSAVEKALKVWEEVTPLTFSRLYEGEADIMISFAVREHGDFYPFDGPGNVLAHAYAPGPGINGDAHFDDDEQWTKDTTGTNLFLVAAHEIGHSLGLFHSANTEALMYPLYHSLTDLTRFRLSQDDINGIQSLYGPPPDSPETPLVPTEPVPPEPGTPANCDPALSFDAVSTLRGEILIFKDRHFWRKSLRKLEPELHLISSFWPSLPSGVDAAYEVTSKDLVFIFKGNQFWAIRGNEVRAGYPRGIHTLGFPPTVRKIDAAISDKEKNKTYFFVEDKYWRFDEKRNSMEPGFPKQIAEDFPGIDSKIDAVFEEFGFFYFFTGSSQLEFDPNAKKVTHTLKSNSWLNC
Experimental: as §1, §2, §3, §4, §5

[1] = test system: vascularisation of sponge implants; assay: Inhibition of angiogenesis: vascularisation of sponge implants in mice, xenon clearance; type: in vivo; settings: oral, twice per day, 100 mg/kg in PG vehicle, beginning 8 h after sponge implantation
Experimental: Compounds were assessed by their ability to inhibit vascularisation of sponge implants in mice. The amount of vascularisation in this model is determined by the rate of clearance of radioactive xenon from the sponge. Compounds in polyethylene glycol (PG) vehicle were orally administered twice per day at a dose of 100 mg/kg, with administration beginning 8 h after sponge implementation.
FIG. 1 illustrates the result of one experiment using the compound of Example 1. For comparative purposes the following compound (Compound [E]) was used: [drawing 20] (prepared as described in International Patent Application No. PCT/GB 94/00896).
The results are expressed in FIG. 1 as a graph of xenon clearance (expressed as a clearance constant) against time.

[2] = relative to the compound of Example 1

| Structure (SMILES) | Ki (Collagenase) [nM] | Ki (Stromelysin-1) [nM] | Ki (Gelatinase 72KD) [nM] | inhibition (comparative experiment) (gelatinase A (72 K form)) [%] | % Inhibition of enzyme activity (gelatinase A (72 K form); at 10 mg/Kg) [%] | also measured |
| --- | --- | --- | --- | --- | --- | --- |
| CC(C)[C@H](NC(=O)[C@H](CCCc1ccc(Cl)cc1)CC(=O)NO)C(N)=O [Compound [B], reference compound] |  |  |  | 53 |  |  |
| CC(C)C[C@H](NC(=O)[C@H](CCCc1ccc(Cl)cc1)CC(=O)NO)C(N)=O [Compound [C], reference compound] |  |  |  | 25 |  |  |
| CCNC(=O)[C@@H](NC(=O)[C@H](CCCc1ccc(Cl)cc1)CC(=O)NO)C(C)(C)C [Compound [D], reference compound] |  |  |  | 11 |  |  |
| CNC(=O)[C@@H](NC(=O)[C@@H](CC(=O)NO)CC(C)C)C(C)(C)SC [Compound [E], reference compound] |  |  |  |  |  | fold more potent on collagenase than the compound of Example 1 (Collagenase; [2]): approximately 40 fold; fold less potent on gelatinase than the compound of Example 1 (Gelatinase 72KD; [2]): approximately 40 fold |
| CC(C)(C)[C@H](NC(=O)[C@H](CCCc1ccccc1)CC(=O)NO)C(N)=O [Example 2, N^4 -Hydroxy-N^1-(1-(S)-carbamoyl-2.2-dimethylpropyl)-2-(R)-(phenylpropyl)succinamide] |  |  |  |  | 73 |  |

Now from value to compound, other results behind:

| Ki (Collagenase) [nM] | Ki (Stromelysin-1) [nM] | Ki (Gelatinase 72KD) [nM] | Structure (SMILES) | inhibition (comparative experiment) (gelatinase A (72 K form)) [%] | % Inhibition of enzyme activity (gelatinase A (72 K form); at 10 mg/Kg) [%] | also measured |
| --- | --- | --- | --- | --- | --- | --- |
| 122 | 10.9 | 0.07 | CC(C)(C)[C@H](NC(=O)[C@H](CCCc1ccc(Cl)cc1)CC(=O)NO)C(N)=O [Example 1, N^4 Hydroxy-N^1-(1-(S)-carbamoyl-2.2-dimethylpropyl)-2-(R)-4(chlorophenylpropyl)succinamide] | 100 | 100 | inhibition of vascularisation / xenon clearance (FIG. 1) [1]: substantial inhibition of vascularisation as seen by the marked inhibition of xenon clearance, which was much greater than the inhibition achieved by the non-specific metalloproteinase inhibitor Compound [E] |
| 491 | 10.2 | 0.042 | Cc1ccc(CCC[C@H](CC(=O)NO)C(=O)N[C@H](C(N)=O)C(C)(C)C)cc1 [Example 3, N^4 Hydroxy-N^1-(1-(S)-carbamoyl-2.2-dimethylpropyl)-2-(R)-(4-methylphenylpropyl)succinamide] |  | 95 |  |
|  |  | 0.023 | COc1ccc(CCC[C@H](CC(=O)NO)C(=O)N[C@H](C(N)=O)C(C)(C)C)cc1 [Example 4, N^4 -Hydroxy-N^1-(1-(S)-carbamoyl-2.2-dimethylpropyl)-2-(R)-(4-methoxyphenylpropyl)succinamide] |  | 82 |  |
| 22.5 | 2.64 |  | CNC(=O)[C@@H](NC(=O)[C@H](CCCc1ccc(Cl)cc1)CC(=O)NO)C(C)(C)C [Example 5, N^4 -Hydroxy-N^1-(1-(S)-methylaminocarbonyl-2.2-dimethylpropyl)-2-(R)-(4-chlorophenylpropyl)succinamide] |  | 64 |  |
|  |  | 0.21 | CC(C)(C)[C@H](NC(=O)[C@H](CCCc1ccc(F)cc1)CC(=O)NO)C(N)=O [Example 6, N^4 -Hydroxy-N^1-(1-(S)-carbamoyl-2.2-dimethylpropyl)-2-(R)-(4-fluorophenylpropyl)succinamide] |  | 76 |  |
| 84.4 | 9.91 | 0.023 | CNC(=O)[C@@H](NC(=O)[C@H](CCCc1ccc(C)cc1)CC(=O)NO)C(C)(C)C [Example 7, N^4 -Hydroxy-N^1-(1-(S)-methylaminocarbonyl-2.2-dimethylpropyl)-2-(R)-(4-methylphenylpropyl)succinamide] |  |  | % Inhibition of enzyme activity (gelatinase A (72 K form); at 80 mg/Kg): 100% |
